Test results: US4797471A, “Peptide derivatives having an inhibitory action on hydroxylating enzymes, a process for their preparation, agents containing them, and their use” (Hoechst Aktiengesellschaft, priority 1985, dated 1989)

Tests used:
[1] = molecular target: Proline hydroxylase; assay: Enzyme test: hydroxylation of underhydroxylated collagen, proline hydroxylase inhibition; format: biochemical; conditions: 50% inhibition of the enzyme reaction; Iron(II) ions, α-ketoglutarate and ascorbate
Source text: (§1) The inhibitory action of the substances according to the invention, for example on collagen biosynthesis, can be tested in an enzyme test in analogy to the method of B. Peterkovsky and R. DiBlasio, Anal. Biochem. 66, 279-286 (1975). This entails enzymatic hydroxylation of underhydroxylated collagen in the presence of IronlII) ions, α-ketoglutarate and ascorbate. The enzymes which can be used are prolyl 4-hydroxylase, prolyl 3-hydroxylase or lysl hydroxylase in a cell-free test medium. The inhibitory action can also be measured in cell or tissue culture and is reported as 50% inhibition of the enzyme reaction (IC50).

[2] = molecular target: Lysine hydroxylase; assay: Enzyme test: hydroxylation of underhydroxylated collagen, lysine hydroxylase inhibition; format: biochemical; conditions: 50% inhibition of the enzyme reaction; Iron(II) ions, α-ketoglutarate and ascorbate
Source text: as §1

Row | SMILES | IC50 [1] [µM] | IC50 [2] [µM]
1 | CC(=O)N[C@@H](CCCNC(=O)c1cc(O)c(O)c(O)c1)C(=O)N1CCC[C@H]1C(=O)NCC(=O)O [Ac--Orn(3,4,5-Trihydroxybenzoyl)-Pro--Gly--OH] | 29 | 8
2 | CC(=O)N[C@@H](CCCNC(=O)c1ccc(O)c(O)c1)C(=O)N1CCC[C@H]1C(=O)NCC(=O)O [Ac--Orn(3,4-Dihydroxybenzoyl)-Pro--Gly--OH] | 72 | 7
3 | CC(=O)N[C@@H](CCCNC(=O)Cc1ccc(O)c(O)c1)C(=O)N1CCC[C@H]1C(=O)NCC(=O)O [Ac--Orn(3,4-Dihydroxyphenylacetyl)-Pro--Gly--OH] | 140 | 37
4 | CC(=O)N1CCC[C@H]1C(=O)N[C@@H](CCCNC(=O)c1cc(O)c(O)c(O)c1)C(=O)NCC(=O)O [Ac--Pro--Orn(3,4,5-Trihydroxybenzoyl)-Gly--OH] | 17 | 26
5 | CC(=O)N1CCC[C@H]1C(=O)N[C@@H](CCCNC(=O)Cc1ccc(O)c(O)c1)C(=O)NCC(=O)O [Ac--Pro--Orn(3,4-Dihydroxyphenylacetyl)-Gly--OH] | 155 | 70
6 | CC(=O)N[C@@H](CCCNC(=O)c1cccc(O)c1O)C(=O)N1CCC[C@H]1C(=O)NCC(=O)O [Ac-Orn(2,3-dihydroxybenzoyl)-Pro-Gly-OH] | 38 | 7
7 | CC(=O)N1CCC[C@H]1C(=O)N[C@@H](CCCNC(=O)c1ccc(O)c(O)c1)C(=O)NCC(=O)O [Ac-Pro-Orn(3,4-dihydroxybenzoyl)-Bly-OH] | 50 | 39
